Holding throughout (type): functional, organism-based
Experiment [1] has as its system Pseudomonas aeruginosa. Briefly: Antibacterial activity against wild type Pseudomonas aeruginosa assessed as inhibition of bacterial growth.
Experiment [2] relates to Pseudomonas aeruginosa. The experiment can be described thus: Antibacterial activity against efflux pump lacking Pseudomonas aeruginosa assessed as inhibition of bacterial growth.
In experiment [3] the test system is Acinetobacter baumannii. The experiment can be described thus: Antibacterial activity against recombinant OM pore producing Acinetobacter baumannii assessed as inhibition of bacterial growth.
In experiment [4] the test system is Escherichia coli. Briefly: Antibacterial activity against wild type Escherichia coli assessed as inhibition of bacterial growth.
Experiment [5] relates to Escherichia coli. The experiment can be described thus: Antibacterial activity against efflux pump lacking/recombinant OM pore producing Escherichia coli assessed as inhibition of bacterial growth.
The subject of experiment [6] is Pseudomonas aeruginosa. The experiment can be described thus: Antibacterial activity against recombinant OM pore producing Pseudomonas aeruginosa assessed as inhibition of bacterial growth.
For experiment [7], the system named is Acinetobacter baumannii. Briefly: Antibacterial activity against efflux pump lacking Acinetobacter baumannii assessed as inhibition of bacterial growth.
Experiment [8] concerns Pseudomonas aeruginosa. Briefly: Antibacterial activity against efflux pump lacking/recombinant OM pore producing Pseudomonas aeruginosa assessed as inhibition of bacterial growth.
Experiment [9] has as its system Acinetobacter baumannii. The experiment can be described thus: Antibacterial activity against efflux pump lacking/recombinant OM pore producing Acinetobacter baumannii assessed as inhibition of bacterial growth.
Experiment [10] has as its system Acinetobacter baumannii. Briefly: Antibacterial activity against wild type Acinetobacter baumannii assessed as inhibition of bacterial growth.
In experiment [11] the test system is Escherichia coli. Briefly: Antibacterial activity against efflux pump lacking Escherichia coli assessed as inhibition of bacterial growth.
The subject of experiment [12] is Escherichia coli. Briefly: Antibacterial activity against recombinant OM pore producing Escherichia coli assessed as inhibition of bacterial growth.

The structures appear in SMILES notation.

The term IC50 denotes the concentration that gives 50% inhibition. With `C[n+]1cccc(-c2ccc(N3C[C@H](CO)OC3=O)cc2F)c1`, the half-inhibitory concentration (IC50) is greater than 100 µM in the experiment with Pseudomonas aeruginosa [1]; greater than 100 µM in the experiment with Pseudomonas aeruginosa [2]; greater than 100 µM with Acinetobacter baumannii [3]; greater than 100 µM in the experiment with Escherichia coli [4]; 88.8 µM in the experiment on Escherichia coli [5]; greater than 100 µM with Pseudomonas aeruginosa [6]. Besides, the IC50 in the experiment with Acinetobacter baumannii [7] was greater than 100 µM; in the experiment on Pseudomonas aeruginosa [8], greater than 100 µM; in the experiment on Acinetobacter baumannii [9], greater than 100 µM; in the experiment on Acinetobacter baumannii [10], greater than 100 µM; with Escherichia coli [11] it was 70.6 µM; in the experiment on Escherichia coli [12] it was greater than 100 µM.
On to `NCC#Cc1ccc(N2C[C@H](CO)OC2=O)cc1F`, for which the IC50 with Pseudomonas aeruginosa [1], in the experiment on Pseudomonas aeruginosa [2], in the experiment on Acinetobacter baumannii [3], with Escherichia coli [4], with Escherichia coli [5] and in the experiment with Pseudomonas aeruginosa [6] was greater than 100 µM each time. Further, the 50% inhibitory concentration (IC50) in the experiment with Acinetobacter baumannii [7], in the experiment with Pseudomonas aeruginosa [8], in the experiment on Acinetobacter baumannii [9], in the experiment with Acinetobacter baumannii [10], in the experiment on Escherichia coli [11] and with Escherichia coli [12] was greater than 100 µM each time.
In the case of `O=C1O[C@@H](CO)CN1c1ccc(-c2ccc(F)cc2)c(F)c1`, the IC50 in the experiment with Pseudomonas aeruginosa [1] is greater than 100 µM; in the experiment with Pseudomonas aeruginosa [2], 8.8 µM; in the experiment on Acinetobacter baumannii [3], 89.8 µM; in the experiment on Escherichia coli [4], 89.1 µM; in the experiment on Escherichia coli [5], 2.3 µM; with Pseudomonas aeruginosa [6], 89.8 µM. For the same compound, the IC50 in the experiment on Acinetobacter baumannii [7] is 8.8 µM; in the experiment with Pseudomonas aeruginosa [8] it was 2.2 µM; in the experiment with Acinetobacter baumannii [9], 9.7 µM; in the experiment with Acinetobacter baumannii [10] it was greater than 100 µM; in the experiment on Escherichia coli [11], 4.3 µM; in the experiment with Escherichia coli [12] it was 22.8 µM.
For the compound `COc1ccc(-c2ccc(N3C[C@H](CO)OC3=O)cc2F)cc1`, the concentration for half-maximal inhibition (IC50) in the experiment on Pseudomonas aeruginosa [1] was greater than 100 µM; in the experiment on Pseudomonas aeruginosa [2], 0.7 µM; with Acinetobacter baumannii [3], greater than 100 µM; in the experiment with Escherichia coli [4], 23.3 µM; in the experiment on Escherichia coli [5], 0.3 µM; with Pseudomonas aeruginosa [6], greater than 100 µM. For the same compound, the IC50 was 0.7 µM with Acinetobacter baumannii [7]; 1.2 µM in the experiment on Pseudomonas aeruginosa [8]; 0.6 µM in the experiment on Acinetobacter baumannii [9]; greater than 100 µM in the experiment on Acinetobacter baumannii [10]; 0.2 µM in the experiment with Escherichia coli [11]; 3.4 µM in the experiment with Escherichia coli [12].
Take `CC(O)c1ccc(OCC#Cc2ccc(N3C[C@H](CO)OC3=O)cc2F)cc1` (stereo partly drawn): the concentration for half-maximal inhibition (IC50) was greater than 100 µM in the experiment on Pseudomonas aeruginosa [1]; greater than 100 µM in the experiment on Pseudomonas aeruginosa [2]; greater than 100 µM in the experiment with Acinetobacter baumannii [3]; 62.4 µM in the experiment with Escherichia coli [4]; 13.5 µM with Escherichia coli [5]; greater than 100 µM in the experiment on Pseudomonas aeruginosa [6]. For the same compound, the half-inhibitory concentration (IC50) was 61.9 µM in the experiment on Acinetobacter baumannii [7]; 91.3 µM in the experiment on Pseudomonas aeruginosa [8]; 34.7 µM with Acinetobacter baumannii [9]; greater than 100 µM in the experiment with Acinetobacter baumannii [10]; 30.2 µM with Escherichia coli [11]; 24.7 µM in the experiment with Escherichia coli [12].
Take `O=C1O[C@@H](CO)CN1c1ccc(-c2ccc(SC(F)(F)F)cc2)c(F)c1`: the 50% inhibitory concentration (IC50) in the experiment with Pseudomonas aeruginosa [1] is greater than 100 µM; in the experiment with Pseudomonas aeruginosa [2] it was 78.2 µM; with Acinetobacter baumannii [3], 23.5 µM; in the experiment with Escherichia coli [4], 35.1 µM; with Escherichia coli [5], 4.9 µM; in the experiment on Pseudomonas aeruginosa [6], greater than 100 µM. The IC50 in the experiment on Acinetobacter baumannii [7] was 9.1 µM; with Pseudomonas aeruginosa [8], 6.9 µM; with Acinetobacter baumannii [9] it was 8.1 µM; in the experiment on Acinetobacter baumannii [10], 63.5 µM; with Escherichia coli [11], 6.9 µM; with Escherichia coli [12] it was 9.4 µM.
On to `O=C(O)c1cncc(-c2ccc(N3C[C@H](CO)OC3=O)cc2F)c1`, for which the 50% inhibitory concentration (IC50) in the experiment with Pseudomonas aeruginosa [1] was greater than 100 µM; in the experiment with Pseudomonas aeruginosa [2] it was greater than 100 µM; in the experiment with Acinetobacter baumannii [3], greater than 100 µM; in the experiment with Escherichia coli [4], greater than 100 µM; in the experiment on Escherichia coli [5] it was 42.2 µM; in the experiment on Pseudomonas aeruginosa [6] it was greater than 100 µM. The IC50 in the experiment on Acinetobacter baumannii [7], in the experiment with Pseudomonas aeruginosa [8], with Acinetobacter baumannii [9], in the experiment with Acinetobacter baumannii [10], with Escherichia coli [11] and with Escherichia coli [12] was greater than 100 µM each time.
`O=C1O[C@@H](CO)CN1c1ccc(-c2ccc3c(c2)OCO3)c(F)c1`: the half-inhibitory concentration (IC50) with Pseudomonas aeruginosa [1] was greater than 100 µM; with Pseudomonas aeruginosa [2], 2.4 µM; in the experiment on Acinetobacter baumannii [3], greater than 100 µM; in the experiment on Escherichia coli [4] it was 23 µM; in the experiment with Escherichia coli [5] it was 0.3 µM; in the experiment on Pseudomonas aeruginosa [6], greater than 100 µM. In addition, the IC50 is 2.4 µM in the experiment with Acinetobacter baumannii [7]; 0.3 µM with Pseudomonas aeruginosa [8]; 1.5 µM in the experiment with Acinetobacter baumannii [9]; greater than 100 µM in the experiment on Acinetobacter baumannii [10]; 0.3 µM with Escherichia coli [11]; 2.4 µM in the experiment with Escherichia coli [12].
Turning to `Nc1cccc(C#Cc2ccc(N3C[C@H](CO)OC3=O)cc2F)n1`, the IC50 was greater than 100 µM in the experiment with Pseudomonas aeruginosa [1]; greater than 100 µM in the experiment with Pseudomonas aeruginosa [2]; 49.8 µM in the experiment on Acinetobacter baumannii [3]; 59 µM in the experiment with Escherichia coli [4]; 20.5 µM with Escherichia coli [5]; greater than 100 µM in the experiment with Pseudomonas aeruginosa [6]. Moreover, the half-inhibitory concentration (IC50) is 83.9 µM with Acinetobacter baumannii [7]; greater than 100 µM in the experiment on Pseudomonas aeruginosa [8]; 76.7 µM in the experiment on Acinetobacter baumannii [9]; greater than 100 µM in the experiment with Acinetobacter baumannii [10]; 34.2 µM with Escherichia coli [11]; 19.2 µM with Escherichia coli [12].

The record behind these values is ChEMBL document CHEMBL5104202, “Structure-Uptake Relationship Studies of Oxazolidinones in Gram-Negative ESKAPE Pathogens” (J Med Chem, 2022).
